Square brackets hold non-standard residues; d marks the D form. Peptide text beside a SMILES is read from it. Ala(indol-4-yl) = N[C@@H](Cc1cccc2[nH]ccc12)C(=O)O; NMeR = CN[C@@H](CCCNC(=N)N)C(=O)O; Tle = CC(C)(C)[C@H](N)C(=O)O
Columns and labels:
dopamine D2 receptors = target: T1, dopamine D2 receptors (Homo sapiens, UniProt P14416); assay: Radiolabeled competitive binding, human brain tissue, dopamine
T1 construct: Human brain tissue; from tissue; host or cells: human brain tissue

rat NTR1 = target: T2, rat NTR1 (Rattus norvegicus, UniProt P20789); assay: PI turnover ([3H]IP1) in intact CHO-K1 cells, rat NTR1; type: cell-based
T2 construct: expressed in transfected cells; host or cells: CHO-K1
T2 sequence (P20789 whole entry): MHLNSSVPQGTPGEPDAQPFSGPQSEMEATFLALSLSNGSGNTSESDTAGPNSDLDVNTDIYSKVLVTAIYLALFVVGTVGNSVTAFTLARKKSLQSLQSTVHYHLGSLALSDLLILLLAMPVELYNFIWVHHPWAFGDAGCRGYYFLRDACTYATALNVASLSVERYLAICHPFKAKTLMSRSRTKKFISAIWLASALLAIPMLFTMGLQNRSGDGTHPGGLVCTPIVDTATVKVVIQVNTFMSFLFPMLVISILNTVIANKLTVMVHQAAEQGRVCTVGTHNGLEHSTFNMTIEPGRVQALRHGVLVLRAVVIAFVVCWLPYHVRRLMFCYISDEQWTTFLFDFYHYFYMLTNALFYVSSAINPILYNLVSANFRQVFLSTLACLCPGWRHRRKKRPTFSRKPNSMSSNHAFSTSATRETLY
Description: To measure PI turnover, intact CHO-K1 cells were harvested at about 80% confluency. Cells were detached from the petri plates by removal of culture medium followed by incubation of the cellular monolayer for 20 minutes at 37° C. with gentle shaking in a modified Puck's D1 solution containing 2 mM EGTA. […] Briefly, intact CHO cells were prelabeled with D-myo-[^3H]inositol (18.3 Ci/mmol) in the presence of lithium chloride (final concentration, 10 mM). […] For the experiments described herein, the stimulation time was 30 minutes, and the number of CHO cells per assay tube was 1.5×10^5.

[1] = Degradation in rat intestinal preparation; type: in vitro ADME; conditions: pH 7.4, 37° C., read-out: half-time, Rat Intestinal Preparation (converted)
Description: For intestinal preparations, rats were sacrificed by decapitation, and the small intestines removed. The tissue was washed with ice-cold PBS (10 mM, pH 7.4). About […] of intestinal tissue was added to about 10 mL of PBS and homogenized using a Brinkman polytron homogenizer (setting 6). After homogenization, 10 mL of PBS was added to 10 mL of the intestinal homogenate. […] The supernatant was removed and stored at −20° C. until testing. Immediately before incubation with the polypeptide, the intestinal preparation was filtered through a 0.2 μm filter. Testing procedures were similar to those for the plasma tests.
For the degradation studies, data were plotted in linear form as a semi-log plot with SigmaPlot for Windows Version 4.00. Linear regression on these plots provided the parameters used to calculate the half-time (t1/2) for degradation of each polypeptide. The correlation coefficient (R) for the linear regression was taken as a measure of the goodness-of-fit.

[2] = Catalepsy bar test in rats; type: in vivo, rat
Description: The following experiments were performed to assess the ability of NT69L to cause and influence catalepsy. Male Sprague-Dawley rats (150–250 g) or CD-1 mice (24–26 g) were housed in a temperature-controlled room in groups of five with free access to food and water. The animals were kept on a 12 hour light/dark cycle, and all tests were performed during the light cycle. […] Thirty minutes after injection, the animals were tested for catalepsy. For rats, the test involved simply placing the animal's fore paws on a suspended metal bar 10 mm in diameter, 11 cm above the counter. The time elapsed until the animal's fore paws touch the counter was recorded. […] The cut-off time was 20 seconds, and each animal was tested three times for each time point.

α2-adrenergic receptors = assay: Radiolabeled competitive binding, human brain tissue, adrenergic α2
5HT2A receptor = 5HT2A receptor (Homo sapiens, UniProt P28223); assay: Competitive binding with [3H]ketanserin, human brain tissue
5HT2A receptor, sequence (P28223 whole entry): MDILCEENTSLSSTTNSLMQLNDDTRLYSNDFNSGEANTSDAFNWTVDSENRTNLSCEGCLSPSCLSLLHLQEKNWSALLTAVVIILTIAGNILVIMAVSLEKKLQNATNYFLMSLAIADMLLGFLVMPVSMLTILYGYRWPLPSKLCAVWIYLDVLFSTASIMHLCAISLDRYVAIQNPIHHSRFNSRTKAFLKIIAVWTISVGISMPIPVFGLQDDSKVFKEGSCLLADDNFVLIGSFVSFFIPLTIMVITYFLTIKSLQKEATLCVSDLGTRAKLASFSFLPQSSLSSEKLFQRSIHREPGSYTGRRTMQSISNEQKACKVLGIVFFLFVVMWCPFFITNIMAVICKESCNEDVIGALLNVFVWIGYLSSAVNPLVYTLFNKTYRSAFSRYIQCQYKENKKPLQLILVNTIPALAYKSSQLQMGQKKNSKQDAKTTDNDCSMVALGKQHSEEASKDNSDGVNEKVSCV

[3] = Catalepsy (fixed rearing posture) in mice; type: in vivo; conditions: 5 mg/kg ip
Description: The following experiments were performed to assess the ability of NT69L to cause and influence catalepsy. Male Sprague-Dawley rats (150–250 g) or CD-1 mice (24–26 g) were housed in a temperature-controlled room in groups of five with free access to food and water. The animals were kept on a 12 hour light/dark cycle, and all tests were performed during the light cycle. The test for catalepsy is well established and quite simple (Munkvad et al., Brain Behav. Evol. 1:89–100(1968)). […] Thirty minutes after injection, the animals were tested for catalepsy. For rats, the test involved simply placing the animal's fore paws on a suspended metal bar 10 mm in diameter, 11 cm above the counter. The time elapsed until the animal's fore paws touch the counter was recorded. […] For mice, catalepsy was scored based on the time that the mice maintained a fixed rearing posture against the side of the cage (Adams et al., Proc. Natl. Acad. Sci. USA 94:12157–12161 (1997)). The cut-off time was 20 seconds, and each animal was tested three times for each time point.

[4] = Blood glucose and hormone levels in rats; type: in vivo, rat; conditions: 1 mg/kg ip
NT binding sites = assay: [125I]NT binding in brain tissue of rats chronically treated; type: in vivo, rat; conditions: 1 mg/kg ip daily four days, 5 mg/kg day five
Description: The effect of chronic treatment with NT69L on the number of NT binding sites within brain was assessed. Rats were treated daily with NT69L (1 mg/kg; ip) for four days. On day five, the rats were treated with 5 mg/kg (ip) NT69L, tested behaviorally, and then sacrificed. The PAG and rest of brain were dissected from the animal and used in NT binding analysis. Briefly, homogenates were prepared from freshly obtained PAG and the rest of brain of rats according to Goedert et al. (Brain Res. 304, 71–81 (1984)) with the following modifications: the assay buffer contained the peptidase inhibitors 1,10 phenanthroline (1 μM) and aprotonin (5 mg/ml). For PAG and rest of brain binding assays, tissues were incubated with 0.3 nM [^125I]NT (NEN, Boston, Mass.) at room temperature for 30 minutes. Total and nonspecific binding was measured and the binding sites were normalized to polypeptide concentrations by BCA protein determination (Pierce Chemical Co., Rockford, Ill.).

T1 sequence (P14416 whole entry): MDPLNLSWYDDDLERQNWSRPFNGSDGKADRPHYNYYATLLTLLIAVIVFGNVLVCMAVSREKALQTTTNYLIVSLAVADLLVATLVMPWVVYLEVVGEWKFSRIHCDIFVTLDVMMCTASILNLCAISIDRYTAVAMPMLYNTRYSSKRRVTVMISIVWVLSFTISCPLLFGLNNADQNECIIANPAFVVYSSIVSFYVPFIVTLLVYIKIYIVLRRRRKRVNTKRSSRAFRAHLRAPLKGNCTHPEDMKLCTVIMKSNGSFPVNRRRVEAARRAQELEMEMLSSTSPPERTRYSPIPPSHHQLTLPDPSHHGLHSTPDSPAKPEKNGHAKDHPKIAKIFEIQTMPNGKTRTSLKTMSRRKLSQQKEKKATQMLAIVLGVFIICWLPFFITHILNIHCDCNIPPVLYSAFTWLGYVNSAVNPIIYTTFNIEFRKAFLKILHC

In the case of CN[C@@H](CCCNC(=N)N)C(=O)N[C@@H](CCCCN)C(=O)N1CCC[C@H]1C(=O)N[C@@H](Cc1cccc2[nH]ccc12)C(=O)N[C@H](C(=O)N[C@@H](CC(C)C)C(=O)O)C(C)(C)C [NT69L] (H-[NMeR]KP[Ala(indol-4-yl)][Tle]L-OH; N-terminus and C-terminus assumed), the Kd (dopamine D2 receptors) is reported as 13.3 µM, the EC50 (rat NTR1) is reported as 0.00134 ± 2e-05 µM and the “improvement in potency at PI turnover versus Eisai, rat NTR1” value (rat NTR1) is reported as “about two fold”. The half-life [1] was 4.1 h, the “catalepsy scores in rats” value ([2]; 5 mg/kg ip) was “no effect on catalepsy scores” and the “haloperidol-induced catalepsy, test compound given after” value ([2]; 5 mg/kg ip 30 minutes after haloperidol 1 mg/kg ip) was “reversed”. For the same molecule, the “haloperidol-induced catalepsy, test compound given before” value ([2]; 5 mg/kg ip 30 minutes before haloperidol 1 mg/kg ip) was “did not exhibit significant cataleptic behavior”, the “catalepsy on haloperidol injection after chronic treatment” value ([2]; after the third and fourth days of NT69L 1 mg/kg ip) was “exhibited catalepsy” and the “ED50 reversal of haloperidol-induced catalepsy” value ([2]; haloperidol 120 μg/kg ip, NT69L ip 40 minutes later, scored at 130 minutes) was 0.26 mg/kg. The Kd (α2-adrenergic receptors) was 58.6 µM, the Kd (5HT2A receptor) was 34.6 µM and the catalepsy in mice [3] was “caused no catalepsy”. The T4 level ([4]; Sprague-Dawley rats, one hour post injection, saline 2.6) was 1.8 µg/dL, the corticosterone level ([4]; Sprague-Dawley rats, one hour post injection, saline 6.1) was 24.6 µg/dL and the TSH level ([4]; Sprague-Dawley rats, one hour post injection, saline 7.65) was 0.9 mIU/L. The glucose level ([4]; Sprague-Dawley rats, one hour post injection, saline 130) was 221 mg/dL, the T4 ([4]; Zucker rats, one hour after injection, control 1.47) was 1.03 µg/dL and the TSH ([4]; Zucker rats, one hour after injection, control 1.9) was 0.43 mIU/L. For the same molecule, the corticosterone ([4]; Zucker rats, one hour after injection, control 10.9) was 19.7 µg/dL, the blood glucose ([4]; Zucker rats, one hour after injection, control 140) was 310 mg/dL and the “[125I]NT binding, PAG tissue” value (NT binding sites; control 2.34) was 1.89 dpm/μg protein. For the same molecule, the “[125I]NT binding, rest of brain tissue” value (NT binding sites; control 3.1) was 2.1 dpm/μg protein.
